The text below walks through data of patent US20160106711A1, “3-3-Di-Substituted-Oxindoles as Inhibitors of Translation Initiation” (President and Fellows of Harvard College, priority 2012, published 2016).

In test [1] the test system is CRL-2813. The experiment in a line: Cell growth assay (sulforhodamine B), CRL-2813 cells. The format is cell-based, human. The conditions noted are these: 5 days, SRB. Summed up: (§1)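 Cells were exposed for 5 days to 0.54-6 µM compound, then TCA-fixed and stained with sulforhodamine B, read at 490 nm. Growth was expressed as %T/C with time-zero correction. IC50 is the concentration giving 50% growth inhibition.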

Test [2] deals with eIF2•GTP•Met-tRNAi ternary complex. The experiment in a line: Ternary complex assay (ATF-4 assay), dual luciferase firefly/renilla ratio. The format is cell-based, mouse. The conditions noted are these: for maximal fold induction at 40 µM: read-out: ATF-4 Xmax @ 40 μM. Summed up: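 Stable KLN cancer cells expressing tTA carry a bidirectional reporter in which firefly luciferase sits behind the ATF-4 5′UTR and renilla luciferase behind a plasmid-derived 5′UTR only. Lysates were read by Dual-Glo luciferase assay, and the output is the firefly/renilla signal ratio.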

Test [3] has as its system CHOP mRNA. Nature of the test: Real time PCR of CHOP mRNA expression, CRL-2351 cells. It is filed as cell-based, human. As for the experimental part: (§2) In order to validate the compounds described herein as modifiers of the abundance of the eIF2•GTP•Met-tRNAi ternary complex, the effects of the compounds on endogenous cellular markers of the ternary complex were determined. For example, reducing amount of the ternary complex increases translation of ATF-4, which results in elevated expression of CHOP mRNA and protein. Therefore, expression of endogenous CHOP mRNA and CHOP protein in KLN-tTA/pBISA-DL^(ATF-4) cells were utilized as secondary assays to validate the compounds as modifiers of the eIF2•GTP•Met-tRNAi ternary complex.
Total RNA was extracted with TaqMan Gene Expression Cells-to-Ct™ Kit (Applied Biosystems, Branchburg, N.J.) and DNAse I treated according to manufacturer's recommendations. 1-Step Real-time PCR was performed on a Bio-Rad iCycler IQ5 system by using B-R 1-Step SYBR Green qRT-PCR Kit (Quanta BioSciences, Gaithersburg, Md.) according to manufacturer's specifications. The thermal cycler conditions were as follows: 10 minutes at 50° C., hold for 5 minutes at 95° C., followed by 2-step PCR for 45 cycles of 95° C. for 15 seconds followed by 60° C. for 30 seconds. All PCRs were performed in triplicate in at least two independent PCR runs. […] To calibrate the results, all the transcript quantities were normalized to 18S rRNA (18S ribosomal RNA-like mRNA in mouse). […]

The subject of test [4] is KLN. Nature of the test: Cell growth assay (sulforhodamine B), KLN cells. The settings on record: 5 days, SRB. It is filed as cell-based, mouse.
In test [5] the test system is CRL-2351. Nature of the test: Cell growth assay (sulforhodamine B), CRL-2351 cells. It is filed as cell-based, human. The settings on record: 5 days, SRB. The procedure, abridged:
as §1

The subject of test [6] is CHOP mRNA. Nature of the test: Real time PCR of CHOP mRNA expression, KLN cells. It is filed as cell-based, mouse. On the procedure:
as §2
Total RNA was extracted with TaqMan Gene Expression Cells-to-Ct™ Kit (Applied Biosystems, Branchburg, N.J.) and DNAse I treated according to manufacturer's recommendations. 1-Step Real-time PCR was performed on a Bio-Rad iCycler IQ5 system by using B-R 1-Step SYBR Green qRT-PCR Kit (Quanta BioSciences, Gaithersburg, Md.) according to manufacturer's specifications. The thermal cycler conditions were as follows: 10 minutes at 50° C., hold for 5 minutes at 95° C., followed by 2-step PCR for 45 cycles of 95° C. for 15 seconds followed by 60° C. for 30 seconds. All PCRs were performed in triplicate in at least two independent PCR runs. Mean values of these repeated measurements were used for calculation. To calibrate the results, all the transcript quantities were normalized to 18S rRNA (18S ribosomal RNA-like mRNA in mouse). The following primers were used in real-time PCR reactions.
The effects of these compounds on the ternary complex assay and the expression of CHOP mRNA was assayed in adherent mouse (KLN) and human solid tumors cells (CRL-2351 and CRL-2813).

[7] abbreviates: Mus musculus, read-out: ATF-4 Xmax.

The structures appear in SMILES notation. A value given as a limit tells only on which side of the number the result lay.

As to `O=C1Nc2ccccc2C1(c1cc(Cl)ccc1O)c1cc(Cl)ccc1O` [HY033, 3,3-Bis(5-Chloro-2-Hydroxyphenyl)Indolin-2-One], the IC50 in test [1] (Homo sapiens, CRL2813, 120 h) is 4.2 ± 0.2 µM; in test [4] (Mus musculus, 120 h), 15.2 ± 1.6 µM; in test [5] (Homo sapiens, 120 h) it was 6.8 ± 0.8 µM. Besides, the maximal fold induction at 40 µM in test [2] (Mus musculus) stood at 6.14 ± 0.63. In addition, the “CHOP PCR (μM) 2351” value in test [3] (CRL-2351, 20 uM) is reported as 7.8/20 uM; in test [3] (CRL-2351, 40 uM), 18.5/40 uM.

On to `O=C1Nc2ccccc2C1(c1cc(C2CCCC2)ccc1O)c1cc(C2CCCC2)ccc1O` [HY051, 3,3-Bis(5-Cyclopentyl-2-Hydroxyphenyl)Indolin-2-One], for which the IC50 in test [1] (Homo sapiens, CRL2813, 120 h) was 3.1 ± 0.2 µM; in test [4] (Mus musculus, 120 h) it was over 20 µM; in test [5] (Homo sapiens, 120 h) it was 5.3 ± 2.4 µM. In addition, the maximal fold induction at 20 µM in test [2] (setting [7]) came out at 5.48 ± 0.3. In test [6] (Mus musculus, at 20 uM), this compound registered a fold induction at 20 µM of 13.8.

Turning to `COc1ccc(C(C)C)cc1C1(c2cc(C(C)C)ccc2OC)C(=O)Nc2ccccc21` [HY061], the IC50 in test [1] (Homo sapiens, CRL2813, 120 h) came to 2.8 ± 0.2 µM; in test [4] (Mus musculus, 120 h) it was 11 ± 0.4 µM; in test [5] (Homo sapiens, 120 h), 3 µM. The maximal fold induction at 80 µM in test [2] (setting [7]) stood at 2.9 ± 1.21. Also, the fold induction at 40 µM in test [6] (Mus musculus) was found to be 4.23. Besides, the fold induction at 80 µM in test [6] (Mus musculus) is 12.3.

`COCCOc1ccc(C(C)(C)C)cc1C1(c2cc(C(C)(C)C)ccc2O)C(=O)Nc2ccccc21` (stereo not shown) [HY081]: the IC50 is 0.9 ± 0.1 µM in test [1] (Homo sapiens, CRL2813, 120 h); over 20 µM in test [4] (Mus musculus, 120 h); 3.9 ± 2 µM in test [5] (Homo sapiens, 120 h). Also, the maximal fold induction at 40 µM in test [2] (Mus musculus) was 1.21 ± 0.16. The fold induction at 40 µM in test [6] (Mus musculus) worked out at 1.78.

For the compound `CCN(CC)CCOc1ccc(C(C)(C)C)cc1C1(c2cc(C(C)(C)C)ccc2O)C(=O)Nc2ccccc21` (stereo not shown) [HY096], the IC50 in test [1] (Homo sapiens, CRL2813, 120 h) came out at 1.5 ± 0.6 µM; in test [4] (Mus musculus, 120 h) it was 0.8 ± 0.4 µM; in test [5] (Homo sapiens, 120 h), 0.6 ± 0.1 µM. Besides, in test [2] (setting [7]), the maximal fold induction at 20 µM is 16.7 ± 3.24. In test [6] (Mus musculus, at 20 uM), this compound returned a fold induction at 20 µM of 12.4.

Consider `COCCOc1ccc(C(C)(C)C)cc1C1(c2cc(C(C)(C)C)ccc2OCCOC)C(=O)Nc2ccccc21` [HY181], for which the IC50 in test [1] (Homo sapiens, CRL2813, 120 h) was 0.9 ± 0.1 µM; in test [4] (Mus musculus, 120 h) it was over 20 µM; in test [5] (Homo sapiens, 120 h), 3.9 ± 2 µM. Moreover, the maximal fold induction at 80 µM in test [2] (setting [7]) amounted to 1.58 ± 0.07. In test [6] (Mus musculus), this compound displayed a fold induction at 80 µM of 1.1.

Consider `CC(C)(C)c1ccc(O)c(C2(c3cc(C(C)(C)C)ccc3OCCBr)C(=O)N(CCBr)c3ccccc32)c1` (stereo not shown) [HY183], for which the IC50 in test [1] (Homo sapiens, CRL2813, 120 h) is 1.1 ± 0.3 µM; in test [4] (Mus musculus, 120 h), over 20 µM; in test [5] (Homo sapiens, 120 h), 2.9 ± 1.2 µM. Besides, in test [2] (setting [7]), the maximal fold induction at 80 µM was 1.9 ± 0.03. The compound further came in with a fold induction at 80 µM in test [6] (Mus musculus) of 1.83.

In the case of `CC(C)(C)c1ccc(OCCN2CCCC2)c(C2(c3cc(C(C)(C)C)ccc3OCCN3CCCC3)C(=O)Nc3ccccc32)c1` [HY191], the IC50 in test [1] (Homo sapiens, CRL2813, 120 h) was 0.8 ± 0.1 µM; in test [4] (Mus musculus, 120 h) it was 3.5 ± 1.2 µM; in test [5] (Homo sapiens, 120 h), 0.65 ± 0.1 µM. For the same compound, the maximal fold induction at 5 µM in test [2] (Mus musculus, cell prints 5 (uM), read-out: ATF-4 Xmax) was 13.9 ± 0.97. The fold induction at 5 µM in test [6] (Mus musculus, at 5 uM) came out at 8.5.

As for `CN(C)CCN1C(=O)C(c2cc(C(C)(C)C)ccc2CCCN2CCCC2)(c2cc(C(C)(C)C)ccc2OCCN2CCCC2)c2ccccc21` (stereo not shown) [HY198], the IC50 in test [1] worked out at 0.8 ± 0.1 µM; in test [4], 0.3 ± 0.1 µM; in test [5], 0.2 ± 0.05 µM. In test [2] (2.5 uM), the “ATF-4 Xmax” value is given as 11.82 ± 0.11/2.5 uM. For the same compound, in test [6] (at 20 uM), the “CHOP PCR (μM) KLN” value is given as 3.76 at.

For `CC(C)(C)c1ccc(O)c(C2(c3cc(C(C)(C)C)ccc3O)C(=O)N(CCN3CCOCC3)c3ccccc32)c1` [HY304], the IC50 in test [1] (Homo sapiens, CRL2813, 120 h) is 1.6 ± 0.2 µM; in test [4] (Mus musculus, 120 h) it was 17.5 ± 1.3 µM; in test [5] (Homo sapiens, 120 h) it was 2.2 ± 0.2 µM. The maximal fold induction at 40 µM in test [2] (Mus musculus) is 4.31 ± 0.1. In addition, in test [6] (Mus musculus), the fold induction at 40 µM worked out at 9.1.

Take `CC(C)(C)c1ccc(O)c(C2(c3cc(C(C)(C)C)ccc3OCCN3CCOCC3)C(=O)N(CCN3CCOCC3)c3ccccc32)c1` (stereo not shown) [HY305]: the IC50 was determined as 2 µM in test [1] (Homo sapiens, CRL2813, 120 h); 5 µM in test [4] (Mus musculus, 120 h); 3.6 ± 0.7 µM in test [5] (Homo sapiens, 120 h). For the same compound, the maximal fold induction at 80 µM in test [2] (setting [7]) stood at 31.9 ± 9.27. Also, the maximal fold induction at 40 µM in test [2] (Mus musculus) is 3.61 ± 0.47. The compound further registered a fold induction at 40 µM in test [6] (Mus musculus) of 10.
